Assay: CSF analysis after sub-occipital cistern magna puncture
Format: in vivo, mouse
Conditions: oral via drinking water; data not shown
Procedure: To reach sufficient CSF levels of Fasudil the inventors administered Fasudil (LC Labs, Woburn, USA; product number F-4660) at a low concentration of […] (Fas30) or at a high concentration of 50 mg (Fas100) in 100 ml drinking water. Control groups received the respective amount of isotonic drinking water termed as vehicle (Veh).

O=S(=O)(c1cccc2cnccc12)N1CCCNCC1 [Fasudil, 1-(5-isoquinolinesulfonyl)homopiperazine]
blood-brain-barrier crossing (CSF analysis): readily crossed the blood-brain-barrier
